Test results published in patent publication US7723370B2, “1, 2-diaryl pyrazoles useful as analgetic and antiinflammatory agents” (Richter Gedeon Vegyeszeti Gyar RT., priority 2005, dated 2010).
“And” between values parts separate entries of the source, which are not always exact repeats. Equal entries are not always repeated. Marks after values point to notes of the source that are not given here.

Tests used:
[1] = test system: carrageenan induced paw oedema; assay: Inhibition of carrageenan induced oedema in rats; assay type: in vivo, rat; details: for ED30: p.o.
Experimental: The treated paw was immersed up to the tibio-tarsal articulation into the chamber and the volume of displaced liquid was determined as the degree of the inflammation. Degree of inflammation (ml)=volume after the CARR treatment (ml)−volume before the CARR treatment (ml)
The degree of the anti-inflammatory effect of the treated group (which obtained test agent) was compared to that of the control group (which obtained only vehicle). The test compound and the vehicle were given orally by blunt-ended needle cannula one hour before the CARR treatment. The volume of the treated paw was measured at 3 and 5 hours after the CARR treatment and the change in the degree of inflammation in % was calculated according to the following formula: Anti-inflammatory activity %=100×[control group (ml)−treated group (ml)/control group (ml)]
[…] Anti-inflammatory activity of the compounds was determined in % at 4 and 6 hours after p.o. treatment and ED30 was calculated.

[2] = test system: acetic acid induced chronic gastric ulcer; assay: Acetic acid induced chronic gastric ulcer in rats; assay type: in vivo, rat
Experimental: In our experiments the method […] of Okabe et al was used. Male Wistar rats of 150-170 g were narcotize part of the stomach.
The test compound was given p.o. on the fifth day after the operation for seven days. The animals were euthanized with ether after 24 hours of the last dose and the abdomen was macroscopically examined (exravasation, accretion), the stomach was excised and the diameters of ulcers were measured.

[3] = test system: carrageenan induced acute hyperalgesia; assay: Carrageenan induced acute hyperalgesia in rats (Randall-Selitto model); assay type: in vivo, rat
Experimental: (§1) Oedema (inflammation) was induced by subcutaneous injection of carrageenan (CARR) suspension in the subplantar region of the right hind paw of male Wistar rats, weighted 140-190 g (n=8-12 animal/group). The nociceptive thresholds of the inflamed hind paw after painful mechanical stimuli were measured with analgesimeter (Ugo Basile, type: 37215, Italy). The apparatus is suitable for the measuring of the extent and the latency of the pain reaction threshold of the sensitized paw after painful stimuli. The analgesics elevate the low pain reaction threshold of inflamed paw and the degree of its antinociceptive effect is expressed in reversal %.
(§2) An increasing pressure was applied to the paw and the withdrawal threshold was determined as the first sign (squeaking and/or struggling) of pain response. The pressure threshold was shown in grams. The average value of the hind paw withdrawal obtained with untreated right paw was regarded as the basal hind paw withdrawal (average 80-110 grams.) After determining the baseline threshold the animals received carrageenan injection that produced an intense inflammation associated with hyperalgesia. The mechanical threshold was determined at various times to establish the magnitude and duration of the hyperalgesia. The maximum reduction in threshold was measured 2-3 h after injection (the pain threshold of the inflamed paw is 20-30 g, which was decreased by 65-80% in comparing to the basic value).
(§3) Acute hvneralgesia model: the animals were treated with the test compounds and celecoxib (10 and 30 mg/kg p.o.) one hour after CARR treatment (100 μl 2% suspension). Pain threshold was measured at 2 and 4 hours after the treatment. Chronic hyperalgesia model: extended inflammation and decreased pain threshold were induced with higher dose of CARR. Pain threshold of inflamed paw was measured 24 hours after CARR treatment (150 μl, 2% suspension) then test compound and Celecoxib (30 mg/kg p.o.) were given to the animals. Pain threshold of treated paw was measured from 30 minutes till 3 hours after treatment.
(§4) Control groups in both models after CARR treatment were treated with vehicle p.o. at the same intervals as the test compounds. In both models the analgesic effect of the compounds was expressed in the reversal (%) of the decrease of the pain threshold. Reversal %=[mean of treated groupTxh(g)−treated groupT0h(g)]/[basic mean of treated groupT-1h(g)−treated groupT0h(g)] • T−1 h=mean of the pain threshold of paw before CARR treatment in acute model (g) • T0h=mean of the pain threshold before treatment 1 hour after CARR treatment in acute model (g) • T×h=pain threshold after CARR treatment in the measuring times (1 h, 2 h, 3 h) in acute model (g)

[4] = test system: carrageenan induced chronic hyperalgesia; assay: Carrageenan induced chronic hyperalgesia model in rats (Randall-Selitto); assay type: in vivo, rat
[5] = test system: carrageenan induced chronic hyperalgesia; assay: as above; assay type: in vivo, rat; details: chronic model, 30 mg/kg p.o.
Experimental: as §1, §2, §3, §4

[6] = test system: alcohol induced mucosa injury; assay: Gastric lesions induced by acidified alcohol in rats; assay type: in vivo, rat; details: for Ulcer index: 40 minutes before ethanol+HCl, n = 10
Experimental: Male Wistar rats weighing 140-160 g were treated p.o. with a 1:0.02 mixture of dry ethanol and concentrated HCl (0.5 ml) in order to induce gastric lesions. One hour later the animals were euthanized with ether and the stomach excised along its greater curvature, the mucosa was examined for the presence of lesions.
Severity of lesions: • 1: petechiae or erosion with length of 1 mm • 2: erosion with length between 2 and 3 mm • 3: erosion with length between 3 and 4 mm • 4: erosion with length between 4 and 5 mm
If the lesion was longer than 5 mm, it was scored 4 point as many times as the total length of the lesion divisible by four and the rest of the length was evaluated according to the above scale. The degree of injury of mucosa was characterized by ulcer index. Ulcer index (severity of lesion×number of lesion) was calculated for every animal and the degree of injury of mucosa in the groups of tested animals was characterized by the mean of ulcer index of different groups of animals.
Test compounds were given p.o. 40 minutes before the ethanol+HCl treatment

## Cc1ccc(-c2cc(C(F)(F)F)nn2-c2ccc(S(=O)(=O)NOC(C)C(=O)[O-])cc2)cc1.[Na+] (racemic) [Example 6, Disodium (R,S)-2-[4-(5-p-methylphenyl-3-trifluoromethyl-pyrazol-1-yl)-benzenesulfonyl-aminooxy]-propionic acid monohydrate]
[1]; CARR induced oedema test
  anti-inflammatory activity compared with celecoxib: significantly (p<0.05) higher

## Cc1ccc(-c2cc(C(F)(F)F)nn2-c2ccc(S(N)(=O)=O)cc2)cc1 [Celecoxib, reference compound]
[2]; 30 mg/kg p.o. for seven days
  Area of ulcer (mm^2): 8.2 ± 2.0* mm^2
  Change of bodyweight (g) + (increase) − (decrease): +32 ± 4 g
[2]; p.o. for seven days
  Recovery of acetic acid induced ulcer: inhibited significantly
[1]; 3 mg/kg p.o., 4 hours after treatment
  Inhibiton of carrageenan induced edema %: 16 ± 3%
[1]; 3 mg/kg p.o., 6 hours after treatment
  Inhibiton of carrageenan induced edema %: 12 ± 4%
[1]; 10 mg/kg p.o., 4 hours after treatment
  Inhibiton of carrageenan induced edema %: 24 ± 4%
[1]; 10 mg/kg p.o., 6 hours after treatment
  Inhibiton of carrageenan induced edema %: 18 ± 2%
[1]; 30 mg/kg p.o., 4 hours after treatment
  Inhibiton of carrageenan induced edema %: 32 ± 5%
[1]; 30 mg/kg p.o., 6 hours after treatment
  Inhibiton of carrageenan induced edema %: 26 ± 4%
[1]; 6 hours after the treatment
  anti-inflammatory activity as compared to the control group: less than 30%
[1]; 4 hours after treatment
  ED30: 23 mg/kg and 23.0 mg/kg
[1]; 6 hours after treatment
  ED30: >30 mg/kg
[3]; 10 mg/kg p.o., 1 hour
  Analgesic effect (reversal %) after p.o. treatment: 0%
[3]; 10 mg/kg p.o., 2 hour
  Analgesic effect (reversal %) after p.o. treatment: 0%
[3]; 10 mg/kg p.o., 3 hour
  Analgesic effect (reversal %) after p.o. treatment: 0%
[3]; 30 mg/kg p.o., 1 hour
  Analgesic effect (reversal %) after p.o. treatment: 24%
[3]; 30 mg/kg p.o., 2 hour
  Analgesic effect (reversal %) after p.o. treatment: 3%
[3]; 30 mg/kg p.o., 3 hour
  Analgesic effect (reversal %) after p.o. treatment: 0%
[3]; 30 mg/kg p.o., time not stated
  analgesic effect, reversal: 24%
[4]; 10 mg/kg p.o., 30 min
  Analgesic effect (reversal %) after p.o. treatment: 24%
[4]; 10 mg/kg p.o., 1 hour
  Analgesic effect (reversal %) after p.o. treatment: 17%
[4]; 10 mg/kg p.o., 2 hour
  Analgesic effect (reversal %) after p.o. treatment: 0%
[4]; 30 mg/kg p.o., 4 hour
  Analgesic effect (reversal %) after p.o. treatment: 20%
[5]; 30 min
  Analgesic effect (reversal %) after p.o. treatment: 54%
[5]; 1 hour
  Analgesic effect (reversal %) after p.o. treatment: 34%
[5]; 2 hour
  Analgesic effect (reversal %) after p.o. treatment: 34%
[5]; 3 hour
  Analgesic effect (reversal %) after p.o. treatment: 26%
[5]; time not stated
  analgesic effect, reversal: 54%
[6]; 15 mg/kg p.o.
  Ulcer index: 80.6 ± 2.3
[6]; 30 mg/kg p.o.
  Ulcer index: 49.4 ± 4.5
[6]; 60 mg/kg p.o.
  Ulcer index: 44.4 ± 6.4
[6]; p.o.
  effect on alcohol induced mucosa injury: inhibited the alcohol induced mucosa injury

## Cc1ccc(-c2cc(C(F)(F)F)nn2-c2ccc(S(=O)(=O)NOCC(=O)O)cc2)cc1 [Example 7, [4-(5-p-methylphenyl-3-trifluoromethyl-pyrazol-1-yl)-benzenesulfonylaminooxy]-acetic acid]
other
  melting point: 224 to 225 °C

## CCOC(=O)CONS(=O)(=O)c1ccc(-n2nc(C(F)(F)F)cc2-c2ccc(C)cc2)cc1 [Example 8, [4-(5-p-methylphenyl-3-trifluoromethyl-pyrazol-1-yl)-benzenesulfonylaminooxy]-acetic acid ethyl ester]
other
  melting point: 143 to 144 °C

## Cc1ccc(-c2cc(C(F)(F)F)nn2-c2ccc(S(=O)(=O)NOCCC(=O)O)cc2)cc1 [Example 9, 3-[4-(5-p-methylphenyl-3-trifluoromethyl-pyrazol-1-yl)-benzenesulfonylaminooxy]-propionic acid]
other
  melting point: 176 to 178 °C

## CCOC(=O)C(C)ONS(=O)(=O)c1ccc(-n2nc(C(F)(F)F)cc2-c2ccc(C)cc2)cc1 (stereo not drawn) [Example 10, 2-[4-(5-p-methylphenyl-3-trifluoromethyl-pyrazol-1-yl)-benzenesulfonylaminooxy]-propionic acid ethyl ester]
other
  melting point: 137 to 138 °C

## CC(=O)ONS(=O)(=O)c1ccc(-n2nc(C(F)(F)F)cc2-c2ccc(C)cc2)cc1 [Example 11, N-acetoxy-4-(5-p-methylphenyl-3-trifluoromethyl-pyrazol-1-yl)-benzenesulamide]
other
  melting point: 138 to 140 °C

## Cc1ccc(-c2cc(C(F)(F)F)nn2-c2ccc(S(=O)(=O)NOC(=O)c3ccccc3)cc2)cc1 [Example 12, N-benzoyloxy-4-(5-p-methylphenyl-3-trifluoromethyl-pyrazol-1-yl)-benzenesulfonamide]
other
  melting point: 152 to 155 °C

## Cc1ccc(-c2cc(C(F)(F)F)nn2-c2ccc(S(=O)(=O)NOC(=O)C(C)(C)C)cc2)cc1 [Example 13, N-pivaloyloxy-4-(5-p-methylphenyl-3-trifluoromethyl-pyrazol-1-yl)-benzenesulfonamide]
other
  melting point: 134 to 136 °C

## COc1ccc2c(c1)c(CC(=O)O)c(C)n2C(=O)c1ccc(Cl)cc1 [Indometacin]
[2]; 2.0 mg/kg p.o. for seven days
  Area of ulcer (mm^2): 39.0 ± 5** mm^2
  Change of bodyweight (g) + (increase) − (decrease): +2 ± 0.6 g
